Series [1] has as its target human GLP-1 receptor (GLP-1R) (Homo sapiens, UniProt P43220). The series can be described thus: Activity assay at human GLP-1 receptor, cAMP induction (AlphaScreen), Example 3. A general note: In Alpha technology, singlet oxygen from a donor bead excites a nearby acceptor bead.
The target in series [2] is T1, human GIP receptor (GIP R) (Homo sapiens, UniProt P48546).
T1 sequence (P48546 22-466): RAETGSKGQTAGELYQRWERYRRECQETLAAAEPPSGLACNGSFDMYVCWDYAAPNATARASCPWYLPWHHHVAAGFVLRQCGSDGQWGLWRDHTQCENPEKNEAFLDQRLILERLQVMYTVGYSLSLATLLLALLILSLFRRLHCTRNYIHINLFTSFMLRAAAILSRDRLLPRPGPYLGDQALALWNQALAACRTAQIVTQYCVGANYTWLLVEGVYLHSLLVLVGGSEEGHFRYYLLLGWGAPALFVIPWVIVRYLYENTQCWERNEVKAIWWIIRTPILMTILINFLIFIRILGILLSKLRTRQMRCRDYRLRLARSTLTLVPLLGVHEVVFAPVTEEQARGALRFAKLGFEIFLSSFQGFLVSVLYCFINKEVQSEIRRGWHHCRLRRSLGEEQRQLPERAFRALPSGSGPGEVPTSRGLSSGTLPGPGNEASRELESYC
Briefly: Activity assay at human GIP receptor, cAMP induction (AlphaScreen), Example 3.

The target in another series is T2, human GIP R (Homo sapiens, UniProt P48546).
T2 sequence (P48546 22-466): T1 sequence (P48546 22-466)
The series can be described thus: cell-based.

The nature of another series: in vivo. The conditions noted are these: male, C57BL/6J, mouse; for bioavailability: Bioavailability s.c.; for half-life: 200 nmol/kg.
The mark [3] stands for this setting: iv, Terminal elimination half-life T½ i.v.
Where [4] appears, read: sc, Terminal elimination half-life T½ s.c.

Starred links: 1 amine or outer side, 2 acyl side, 3 side chain; linkers in the order of their positions; H or OH if unused. Non-standard residues stand in square brackets, D forms with d. Residues, ends and D or L forms follow the SMILES beside them. Groups on a side chain read outwards from the residue. *: point of attachment. X1 = O=C(O)CCCCCCCCCCCCCCCCCCC(=O)N1CCN(CC(=O)*)CC1; C20 diacid = O=C(O)CCCCCCCCCCCCCCCCCCC(=O)*; γGlu = O=C(O)[C@H](CCC(=O)[*:2])N[*:1]; AEEA = NCCOCCOCC(=O)O; Aib = CC(C)(N)C(=O)O Where only a bound is given, the exact number is not on record here.

human GLP-1 receptor (GLP-1R), sequence (P43220 24-463): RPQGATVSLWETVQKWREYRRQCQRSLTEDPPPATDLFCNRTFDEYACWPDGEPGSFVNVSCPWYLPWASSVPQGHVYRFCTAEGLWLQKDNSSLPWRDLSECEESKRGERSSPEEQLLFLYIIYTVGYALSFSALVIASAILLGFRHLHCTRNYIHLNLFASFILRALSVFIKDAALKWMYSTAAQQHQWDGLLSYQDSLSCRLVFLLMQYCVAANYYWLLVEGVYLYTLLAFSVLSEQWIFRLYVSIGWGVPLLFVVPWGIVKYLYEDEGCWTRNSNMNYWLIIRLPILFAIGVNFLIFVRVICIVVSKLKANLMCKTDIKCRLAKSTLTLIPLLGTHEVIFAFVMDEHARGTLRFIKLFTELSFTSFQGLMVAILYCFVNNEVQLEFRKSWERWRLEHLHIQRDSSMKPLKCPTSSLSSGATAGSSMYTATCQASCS

A word on the EC50: it is the concentration needed to bring the measured effect to its halfway point. By bioavailability is commonly meant dose-corrected exposure relative to a reference, in per cent. A low value points to poor availability. The term half-life denotes how long it takes for the measured level to halve. High values mean slow loss, low ones fast loss. For orientation: Tmax means the time at which the peak concentration occurs. On to `CC[C@H](C)[C@H](NC(=O)[C@H](CO)NC(=O)[C@H](Cc1ccc(O)cc1)NC(=O)[C@H](CC(=O)O)NC(=O)[C@H](CO)NC(=O)[C@@H](NC(=O)[C@H](Cc1ccccc1)NC(=O)[C@@H](NC(=O)CNC(=O)[C@H](CCC(=O)O)NC(=O)C(C)(C)NC(=O)[C@@H](N)Cc1ccc(O)cc1)[C@@H](C)O)[C@@H](C)CC)C(=O)N[C@@H](CCC(=O)O)C(=O)N[C@@H](CC(C)C)C(=O)N[C@@H](CC(=O)O)C(=O)N[C@@H](CCCCN)C(=O)N[C@@H](CCCCNC(=O)COCCOCCNC(=O)COCCOCCNC(=O)CC[C@H](NC(=O)CCCCCCCCCCCCCCCCCCC(=O)O)C(=O)O)C(=O)N[C@@H](C)C(=O)N[C@@H](C)C(=O)N[C@@H](CCC(N)=O)C(=O)N[C@@H](CC(=O)O)C(=O)N[C@@H](Cc1ccccc1)C(=O)N[C@H](C(=O)N[C@@H](CC(N)=O)C(=O)N[C@@H](Cc1c[nH]c2ccccc12)C(=O)N[C@@H](CC(C)C)C(=O)N[C@@H](CC(C)C)C(=O)N[C@@H](C)C(=O)NCC(=O)N1CCC[C@H]1C(=O)N[C@@H](CO)C(=O)N[C@@H](CO)C(=O)NCC(=O)N[C@@H](C)C(=O)N1CCC[C@H]1C(=O)N1CCC[C@H]1C(=O)N1CCC[C@H]1C(=O)N[C@@H](CO)C(N)=O)C(C)C` [Compound 15] (H-Y[Aib]EGTFISDYSIELDKK([AEEA-AEEA-γGlu-C20 diacid])AAQDFVNWLLAGPSSGAPPPS-NH2), for which the half-maximal effective concentration (EC50) in series [1] was above 100 nM; in series [2], 0.024 nM; at human GIP R, 0.012 nM. Moreover, the bioavailability in “in vivo” stood at 87%. Also, the half-life in “in vivo” (setting [3]) was 19.2 h; in the series “in vivo” (setting [4]), 16.7 h. Besides, the Tmax in “in vivo” (sc) worked out at 8 h.
As for `CC[C@H](C)[C@H](NC(=O)[C@H](CO)NC(=O)[C@H](Cc1ccc(O)cc1)NC(=O)[C@H](CC(=O)O)NC(=O)[C@H](CO)NC(=O)[C@@H](NC(=O)[C@H](Cc1ccccc1)NC(=O)[C@@H](NC(=O)CNC(=O)[C@H](CCC(=O)O)NC(=O)C(C)(C)NC(=O)[C@@H](N)Cc1ccc(O)cc1)[C@@H](C)O)[C@@H](C)CC)C(=O)N[C@@H](CCC(=O)O)C(=O)N[C@@H](CC(C)C)C(=O)N[C@@H](CC(=O)O)C(=O)N[C@@H](CCCCN)C(=O)N[C@@H](CCCCNC(=O)COCCOCCNC(=O)COCCOCCNC(=O)CC[C@H](NC(=O)CCCCCCCCCCCCCCCCCCC(=O)O)C(=O)O)C(=O)N[C@@H](C)C(=O)N[C@@H](CCC(N)=O)C(=O)N[C@@H](CCCNC(=N)N)C(=O)N[C@@H](C)C(=O)N[C@@H](Cc1ccccc1)C(=O)N[C@H](C(=O)N[C@@H](CCC(=O)O)C(=O)N[C@@H](Cc1c[nH]c2ccccc12)C(=O)N[C@@H](CC(C)C)C(=O)N[C@@H](CC(C)C)C(=O)N[C@@H](C)C(=O)N[C@@H](CCC(N)=O)C(=O)NCC(=O)N1CCC[C@H]1C(=O)N[C@@H](CO)C(=O)N[C@@H](CO)C(=O)NCC(=O)N[C@@H](C)C(=O)N1CCC[C@H]1C(=O)N1CCC[C@H]1C(=O)N1CCC[C@H]1C(=O)N[C@@H](CO)C(N)=O)C(C)C` [Compound 17] (H-Y[Aib]EGTFISDYSIELDKK([AEEA-AEEA-γGlu-C20 diacid])AQRAFVEWLLAQGPSSGAPPPS-NH2), the figures for the EC50 (in series [1]; in series [2]; at human GIP R) were above 3 nM, 0.016 nM and 0.007 nM, respectively. In the series “in vivo”, this compound returned a bioavailability of 56%. Besides, the results for the half-life in the series “in vivo” (setting [3]) and in “in vivo” (setting [4]) were 16.3 h and 19.9 h, respectively. For the same compound, the Tmax in “in vivo” (sc) was 8 h.
On to `CC[C@H](C)[C@H](NC(=O)[C@H](Cc1ccccc1)NC(=O)[C@H](C)NC(=O)[C@H](CCCNC(=N)N)NC(=O)[C@H](CCC(N)=O)NC(=O)[C@H](C)NC(=O)[C@H](CCCCNC(=O)COCCOCCNC(=O)COCCOCCNC(=O)CC[C@H](NC(=O)CCCCCCCCCCCCCCCCCCC(=O)O)C(=O)O)NC(=O)[C@H](CCCCN)NC(=O)[C@H](CC(=O)O)NC(=O)[C@H](CC(C)C)NC(=O)[C@H](CCC(=O)O)NC(=O)[C@@H](NC(=O)[C@H](CO)NC(=O)[C@H](Cc1ccc(O)cc1)NC(=O)[C@H](CC(=O)O)NC(=O)[C@H](CO)NC(=O)[C@@H](NC(=O)[C@H](Cc1ccccc1)NC(=O)[C@@H](NC(=O)CNC(=O)[C@H](CCC(=O)O)NC(=O)C(C)(C)NC(=O)[C@@H](N)Cc1ccc(O)cc1)[C@@H](C)O)[C@@H](C)CC)[C@@H](C)CC)C(=O)N[C@@H](CCC(=O)O)C(=O)N[C@@H](Cc1c[nH]c2ccccc12)C(=O)N[C@@H](CC(C)C)C(=O)N[C@@H](CC(C)C)C(=O)N[C@@H](C)C(=O)N[C@@H](CCC(N)=O)C(=O)NCC(=O)N1CCC[C@H]1C(=O)N[C@@H](CO)C(=O)N[C@@H](CO)C(=O)NCC(=O)N[C@@H](C)C(=O)N1CCC[C@H]1C(=O)N1CCC[C@H]1C(=O)N1CCC[C@H]1C(=O)N[C@@H](CO)C(N)=O` [Compound 18] (H-Y[Aib]EGTFISDYSIELDKK([AEEA-AEEA-γGlu-C20 diacid])AQRAFIEWLLAQGPSSGAPPPS-NH2), for which the results for the EC50 (in series [1]; in series [2]; at human GIP R) were above 3 nM, 0.007 nM and 0.006 nM, respectively. This compound also had a bioavailability in “in vivo” of 78%. Besides, the half-life in the series “in vivo” (setting [3]) is 17.6 h; in “in vivo” (setting [4]), 15.1 h. Besides, the time of peak concentration (Tmax) in “in vivo” (sc) turned out to be 4 h.
With `CC[C@H](C)[C@H](NC(=O)[C@H](CO)NC(=O)[C@H](Cc1ccc(O)cc1)NC(=O)[C@H](CC(=O)O)NC(=O)[C@H](CO)NC(=O)[C@@H](NC(=O)[C@H](Cc1ccccc1)NC(=O)[C@@H](NC(=O)CNC(=O)[C@H](CCC(=O)O)NC(=O)C(C)(C)NC(=O)[C@@H](N)Cc1ccc(O)cc1)[C@@H](C)O)[C@@H](C)CC)C(=O)N[C@@H](CCC(=O)O)C(=O)N[C@@H](CC(C)C)C(=O)N[C@@H](CC(=O)O)C(=O)N[C@@H](CCCCN)C(=O)N[C@@H](CCCCNC(=O)COCCOCCNC(=O)COCCOCCNC(=O)CN1CCN(C(=O)CCCCCCCCCCCCCCCCCCC(=O)O)CC1)C(=O)N[C@@H](C)C(=O)N[C@@H](CCC(N)=O)C(=O)N[C@@H](CCCCN)C(=O)N[C@@H](CCC(=O)O)C(=O)N[C@@H](Cc1ccccc1)C(=O)N[C@H](C(=O)N[C@@H](CCC(=O)O)C(=O)N[C@@H](Cc1c[nH]c2ccccc12)C(=O)N[C@@H](CC(C)C)C(=O)N[C@@H](CC(C)C)C(=O)N[C@@H](C)C(=O)N[C@@H](C)C(=O)NCC(=O)N1CCC[C@H]1C(=O)N[C@@H](CO)C(=O)N[C@@H](CO)C(=O)NCC(=O)N[C@@H](C)C(=O)N1CCC[C@H]1C(=O)N1CCC[C@H]1C(=O)N1CCC[C@H]1C(=O)N[C@@H](CO)C(N)=O)C(C)C` [Compound 21] (H-Y[Aib]EGTFISDYSIELDKK([AEEA-AEEA-X1])AQKEFVEWLLAAGPSSGAPPPS-NH2), the EC50 was above 3 nM in series [1], 0.006 nM in series [2] and 0.007 nM at human GIP R. In the series “in vivo”, this compound came in with a bioavailability of 67%. Besides, the half-life was 24.8 h in “in vivo” (setting [3]) and 21 h in the series “in vivo” (setting [4]). For the same compound, the time to peak (Tmax) in “in vivo” (sc) was 8 h.
As for `CC[C@H](C)[C@H](NC(=O)[C@H](Cc1ccccc1)NC(=O)[C@H](CC(=O)O)NC(=O)[C@H](CCC(N)=O)NC(=O)[C@H](C)NC(=O)[C@H](C)NC(=O)[C@H](CCCCNC(=O)COCCOCCNC(=O)COCCOCCNC(=O)CN1CCN(C(=O)CCCCCCCCCCCCCCCCCCC(=O)O)CC1)NC(=O)[C@H](CCCCN)NC(=O)[C@H](CC(=O)O)NC(=O)[C@H](CC(C)C)NC(=O)[C@H](CCC(=O)O)NC(=O)[C@@H](NC(=O)[C@H](CO)NC(=O)[C@H](Cc1ccc(O)cc1)NC(=O)[C@H](CC(=O)O)NC(=O)[C@H](CO)NC(=O)[C@@H](NC(=O)[C@H](Cc1ccccc1)NC(=O)[C@@H](NC(=O)CNC(=O)[C@H](CCC(=O)O)NC(=O)C(C)(C)NC(=O)[C@@H](N)Cc1ccc(O)cc1)[C@@H](C)O)[C@@H](C)CC)[C@@H](C)CC)C(=O)N[C@@H](CCC(=O)O)C(=O)N[C@@H](Cc1c[nH]c2ccccc12)C(=O)N[C@@H](CC(C)C)C(=O)N[C@@H](CC(C)C)C(=O)N[C@@H](C)C(=O)NCC(=O)N1CCC[C@H]1C(=O)N[C@@H](CO)C(=O)N[C@@H](CO)C(=O)NCC(=O)N[C@@H](C)C(=O)N1CCC[C@H]1C(=O)N1CCC[C@H]1C(=O)N1CCC[C@H]1C(=O)N[C@@H](CO)C(N)=O` [Compound 33] (H-Y[Aib]EGTFISDYSIELDKK([AEEA-AEEA-X1])AAQDFIEWLLAGPSSGAPPPS-NH2), the results for the EC50 (in series [1]; in series [2]; on human GIP R) were above 10 nM, 0.02 nM and 0.014 nM, respectively. The bioavailability in “in vivo” came out at 78%. Moreover, the half-life was 21.7 h in “in vivo” (setting [3]) and 18.7 h in the series “in vivo” (setting [4]). Also, the Tmax in “in vivo” (sc) was 8 h.

(Values after patent US12703729B2, “GIP agonist compounds and methods” (Zealand Pharma A/S, priority 2014, dated 2026).)
